According to patent publication US20260337208A1, “HETEROCYCLIC DERIVATIVES AS JANUS KINASE INHIBITORS” (CHIESI FARMACEUTICI S.P.A., priority 2022, published 2026):

Experiments:
[1] = molecular target: T1, JAK3 (Homo sapiens, UniProt P52333); test: Biochemical potency on JAK3, TR-FRET (LANCE Ultra kinase assay); details: ATP corresponding to Km; cell-free; read-out: JAK3 inhibitory activity (pIC50) (converted)
T1 sequence (P52333 1-1124): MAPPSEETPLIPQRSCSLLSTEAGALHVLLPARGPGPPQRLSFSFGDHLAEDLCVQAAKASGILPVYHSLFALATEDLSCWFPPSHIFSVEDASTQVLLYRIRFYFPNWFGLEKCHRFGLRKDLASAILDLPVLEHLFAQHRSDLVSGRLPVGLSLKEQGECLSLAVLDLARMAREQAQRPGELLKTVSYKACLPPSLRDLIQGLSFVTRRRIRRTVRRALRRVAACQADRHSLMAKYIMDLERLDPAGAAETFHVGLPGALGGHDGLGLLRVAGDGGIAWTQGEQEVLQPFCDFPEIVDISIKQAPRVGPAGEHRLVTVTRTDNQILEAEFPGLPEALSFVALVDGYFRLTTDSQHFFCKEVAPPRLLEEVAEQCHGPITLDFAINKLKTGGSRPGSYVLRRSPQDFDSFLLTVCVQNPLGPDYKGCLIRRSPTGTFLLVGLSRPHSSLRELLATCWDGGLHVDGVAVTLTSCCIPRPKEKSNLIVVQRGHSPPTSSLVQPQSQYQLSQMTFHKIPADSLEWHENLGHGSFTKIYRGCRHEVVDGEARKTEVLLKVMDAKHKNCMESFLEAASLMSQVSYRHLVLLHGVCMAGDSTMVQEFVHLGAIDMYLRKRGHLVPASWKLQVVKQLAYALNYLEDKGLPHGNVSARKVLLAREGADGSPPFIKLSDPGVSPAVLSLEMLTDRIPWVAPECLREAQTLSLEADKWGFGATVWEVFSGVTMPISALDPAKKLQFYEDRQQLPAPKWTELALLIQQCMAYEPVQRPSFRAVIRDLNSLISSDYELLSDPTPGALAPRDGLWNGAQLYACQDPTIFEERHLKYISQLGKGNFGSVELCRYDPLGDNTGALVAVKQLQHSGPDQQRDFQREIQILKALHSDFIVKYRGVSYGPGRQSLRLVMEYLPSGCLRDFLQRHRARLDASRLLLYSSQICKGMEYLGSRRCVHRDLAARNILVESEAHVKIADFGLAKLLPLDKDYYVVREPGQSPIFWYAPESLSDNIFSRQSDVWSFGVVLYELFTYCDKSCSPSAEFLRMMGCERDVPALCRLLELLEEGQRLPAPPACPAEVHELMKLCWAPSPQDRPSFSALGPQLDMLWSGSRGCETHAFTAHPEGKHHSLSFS
How it was run: (§1)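 ULight-JAK-1 (Tyr1023) peptide phosphorylation at Km ATP, 1.5 h r.t.; substrate solution held peptide 30/50/20/10 nM and ATP 20/0.7/0.2/12 μM, enzyme solution 0.15/0.083/0.025/0.144 ng/μL (JAK1/JAK2/JAK3/TYK2). EDTA stop, Eu-PT66 antibody TR-FRET read at 665 nm; 11-point 5-fold dilutions from 20 μM; IC50 by variable-slope fit.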

[2] = test system: pSTAT6 in BEAS-2B human cell line; test: Inhibition of IL-13 induced pSTAT6 in BEAS; type: cell-based; details: for IC50: Homo sapiens, BEAS-2B, 0.5 h, IL-13 trigger, 30 min, parent compound; for Fold difference parent vs predicted acid metabolite: ratio=IC50 predicted acid metabolite/IC50 ester
How it was run: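 BEAS-2B cells grown 48 h, pre-treated 30 min with compound, then stimulated 30 min with IL-13. Lysate pSTAT6 (Tyr641) measured by sandwich ELISA. Eleven 5-fold dilutions from 10 μM, in duplicate, fitted to IC50.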

[3] = molecular target: JAK1 (Homo sapiens, UniProt P23458); test: Biochemical potency on JAK1, TR-FRET (LANCE Ultra kinase assay); details: ATP corresponding to Km; cell-free; read-out: JAK1 inhibitory activity (pIC50) (converted)
How it was run: as §1

[4] = molecular target: JAK2 (Homo sapiens, UniProt O60674); test: Biochemical potency on JAK2, TR-FRET (LANCE Ultra kinase assay); details: ATP corresponding to Km; cell-free; read-out: JAK2 inhibitory activity (pIC50) (converted)
How it was run: as §1

[5] = molecular target: TYK2 (Homo sapiens, UniProt P29597); test: Biochemical potency on Tyk2, TR-FRET (LANCE Ultra kinase assay); details: ATP corresponding to Km; cell-free; read-out: TYK2 inhibitory activity (pIC50) (converted)
How it was run: as §1

Sequence of JAK1 (P23458 whole entry): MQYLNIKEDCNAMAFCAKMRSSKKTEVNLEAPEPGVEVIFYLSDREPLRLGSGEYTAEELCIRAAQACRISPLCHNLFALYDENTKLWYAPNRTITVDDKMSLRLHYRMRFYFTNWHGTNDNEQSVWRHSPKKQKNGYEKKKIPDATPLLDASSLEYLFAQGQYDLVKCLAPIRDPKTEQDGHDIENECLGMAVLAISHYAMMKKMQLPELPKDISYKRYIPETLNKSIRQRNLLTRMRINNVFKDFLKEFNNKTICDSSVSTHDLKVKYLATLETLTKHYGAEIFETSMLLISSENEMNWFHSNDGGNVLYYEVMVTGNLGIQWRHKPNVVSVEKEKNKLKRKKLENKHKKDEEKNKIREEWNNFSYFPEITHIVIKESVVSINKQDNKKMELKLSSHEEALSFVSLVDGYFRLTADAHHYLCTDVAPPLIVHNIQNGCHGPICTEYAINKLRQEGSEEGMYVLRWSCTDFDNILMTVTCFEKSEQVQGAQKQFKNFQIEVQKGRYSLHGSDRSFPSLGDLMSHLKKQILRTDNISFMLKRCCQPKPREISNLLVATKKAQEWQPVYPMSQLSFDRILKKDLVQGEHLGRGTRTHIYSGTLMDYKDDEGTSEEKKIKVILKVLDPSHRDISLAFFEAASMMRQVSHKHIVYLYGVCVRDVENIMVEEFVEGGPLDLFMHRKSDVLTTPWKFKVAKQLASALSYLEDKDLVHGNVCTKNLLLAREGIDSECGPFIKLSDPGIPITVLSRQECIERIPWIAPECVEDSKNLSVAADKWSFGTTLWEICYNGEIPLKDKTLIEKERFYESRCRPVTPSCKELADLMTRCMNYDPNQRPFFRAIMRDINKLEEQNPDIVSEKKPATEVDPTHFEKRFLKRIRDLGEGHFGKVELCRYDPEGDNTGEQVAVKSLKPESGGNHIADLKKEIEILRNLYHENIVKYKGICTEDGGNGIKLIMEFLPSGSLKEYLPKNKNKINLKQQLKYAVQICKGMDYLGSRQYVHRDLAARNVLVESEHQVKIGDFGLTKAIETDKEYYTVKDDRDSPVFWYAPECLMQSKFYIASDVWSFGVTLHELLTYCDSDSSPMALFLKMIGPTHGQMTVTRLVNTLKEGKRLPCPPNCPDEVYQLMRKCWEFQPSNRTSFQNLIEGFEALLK
Sequence of JAK2 (O60674 whole entry): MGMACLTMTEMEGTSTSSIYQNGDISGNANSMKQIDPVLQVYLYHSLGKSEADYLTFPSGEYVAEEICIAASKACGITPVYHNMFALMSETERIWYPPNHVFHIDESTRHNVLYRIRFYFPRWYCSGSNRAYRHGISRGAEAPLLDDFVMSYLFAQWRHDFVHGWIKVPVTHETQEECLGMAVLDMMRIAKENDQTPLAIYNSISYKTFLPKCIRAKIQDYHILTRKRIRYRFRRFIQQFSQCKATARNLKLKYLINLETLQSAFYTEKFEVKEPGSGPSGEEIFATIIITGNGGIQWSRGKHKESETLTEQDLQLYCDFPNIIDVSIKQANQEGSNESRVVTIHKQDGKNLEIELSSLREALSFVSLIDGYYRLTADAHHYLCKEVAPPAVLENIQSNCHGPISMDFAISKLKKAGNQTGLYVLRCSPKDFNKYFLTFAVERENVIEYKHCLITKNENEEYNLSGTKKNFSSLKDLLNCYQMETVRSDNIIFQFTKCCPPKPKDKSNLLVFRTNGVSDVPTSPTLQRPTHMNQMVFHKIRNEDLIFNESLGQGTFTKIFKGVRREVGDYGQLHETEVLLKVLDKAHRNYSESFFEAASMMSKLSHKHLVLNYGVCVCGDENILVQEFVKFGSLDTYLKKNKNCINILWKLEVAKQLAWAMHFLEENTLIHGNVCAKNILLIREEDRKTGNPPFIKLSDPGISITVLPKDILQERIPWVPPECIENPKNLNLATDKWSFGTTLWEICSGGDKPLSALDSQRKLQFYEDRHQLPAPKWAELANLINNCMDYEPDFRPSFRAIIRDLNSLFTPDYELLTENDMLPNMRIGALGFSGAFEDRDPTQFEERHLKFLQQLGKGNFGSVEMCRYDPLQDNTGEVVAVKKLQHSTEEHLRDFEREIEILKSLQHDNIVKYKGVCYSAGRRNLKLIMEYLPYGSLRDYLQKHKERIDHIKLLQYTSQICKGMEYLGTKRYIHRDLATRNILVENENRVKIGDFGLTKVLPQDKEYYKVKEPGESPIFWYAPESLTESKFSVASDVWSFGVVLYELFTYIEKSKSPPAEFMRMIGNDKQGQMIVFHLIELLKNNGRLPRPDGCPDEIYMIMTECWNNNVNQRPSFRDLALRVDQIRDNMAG
Sequence of TYK2 (P29597 whole entry): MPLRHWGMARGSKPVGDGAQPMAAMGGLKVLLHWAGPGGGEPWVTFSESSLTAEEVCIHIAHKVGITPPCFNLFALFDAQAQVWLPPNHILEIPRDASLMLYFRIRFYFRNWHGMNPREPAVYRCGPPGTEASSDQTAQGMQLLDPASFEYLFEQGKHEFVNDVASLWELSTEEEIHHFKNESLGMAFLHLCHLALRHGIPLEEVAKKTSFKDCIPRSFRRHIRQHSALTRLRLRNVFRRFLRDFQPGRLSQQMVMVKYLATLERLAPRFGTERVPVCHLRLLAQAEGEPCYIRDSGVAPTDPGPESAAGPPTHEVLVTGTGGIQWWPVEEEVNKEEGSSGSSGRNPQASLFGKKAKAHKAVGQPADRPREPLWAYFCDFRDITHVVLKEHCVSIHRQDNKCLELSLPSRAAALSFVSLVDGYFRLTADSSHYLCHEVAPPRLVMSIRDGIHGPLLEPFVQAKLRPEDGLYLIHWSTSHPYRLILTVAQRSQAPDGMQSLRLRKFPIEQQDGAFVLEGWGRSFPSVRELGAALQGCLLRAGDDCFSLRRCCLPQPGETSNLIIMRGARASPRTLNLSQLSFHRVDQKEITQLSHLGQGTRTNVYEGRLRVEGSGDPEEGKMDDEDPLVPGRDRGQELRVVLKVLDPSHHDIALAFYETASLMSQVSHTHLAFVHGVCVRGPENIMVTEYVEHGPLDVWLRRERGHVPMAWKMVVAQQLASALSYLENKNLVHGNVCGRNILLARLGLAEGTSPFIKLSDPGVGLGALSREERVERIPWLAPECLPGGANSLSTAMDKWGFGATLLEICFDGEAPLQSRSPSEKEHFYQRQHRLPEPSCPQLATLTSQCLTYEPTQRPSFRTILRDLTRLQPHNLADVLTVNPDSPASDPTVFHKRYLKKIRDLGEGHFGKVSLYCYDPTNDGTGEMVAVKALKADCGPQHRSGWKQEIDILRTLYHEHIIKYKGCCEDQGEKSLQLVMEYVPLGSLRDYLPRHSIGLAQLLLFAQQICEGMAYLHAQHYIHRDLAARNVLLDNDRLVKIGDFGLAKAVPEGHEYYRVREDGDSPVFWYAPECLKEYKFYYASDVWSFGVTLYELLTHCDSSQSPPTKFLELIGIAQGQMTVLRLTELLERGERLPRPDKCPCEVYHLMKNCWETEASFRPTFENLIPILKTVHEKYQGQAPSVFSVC

IC50 [1] [nM] | IC50 [3] [nM] | IC50 [4] [nM] | IC50 [5] [nM] | SMILES | IC50 [2] [nM] | Fold difference parent vs predicted acid metabolite [2]
≤ 5.01 | ≤ 5.01 | ≤ 5.01 | 5.01 to 50.1 | COc1cc2c(cc1-n1nc(C(=O)NCCN3CCC(C(=O)OC4CC(C#N)C4)CC3)c3cnc(-c4cnn5cccnc45)cc31)OCCN2 (centres unmarked) [Example 47, 3-cyanocyclobutyl 1-(2-(1-(6-methoxy-3,4-dihydro-2H-benzo[b][1,4]oxazin-7-yl)-6-(pyrazolo[1,5-a]pyrimidin-3-yl)-1H-pyrazolo[4,3-c]pyridine-3-carboxamido)ethyl)piperidine-4-carboxylate] | ≤ 5.01 | kkkk (ratio≥200)
≤ 5.01 | 5.01 to 50.1 | 5.01 to 50.1 | 5.01 to 50.1 | CCOC(=O)C1CCN(CCNC(=O)c2nn(-c3cc4c(cc3OC)NCCC4)c3cc(-c4cnn5cccnc45)ncc23)CC1 [Example 38, ethyl 1-(2-(1-(7-methoxy-1,2,3,4-tetrahydroquinolin-6-yl)-6-(pyrazolo[1,5-a]pyrimidin-3-yl)-1H-pyrazolo[4,3-c]pyridine-3-carboxamido)ethyl)piperidine-4-carboxylate] | ≤ 5.01 | –
≤ 5.01 | ≤ 5.01 | ≤ 5.01 | 5.01 to 50.1 | COc1cc2c(cc1-n1nc(C(=O)NCCN3CCC(C(=O)OC4CN(C(C)C)C4)CC3)c3cnc(-c4cnn5cccnc45)cc31)OCCN2 [Example 57, 1-isopropylazetidin-3-yl 1-(2-(1-(6-methoxy-3,4-dihydro-2H-benzo[b][1,4]oxazin-7-yl)-6-(pyrazolo[1,5-a]pyrimidin-3-yl)-1H-pyrazolo[4,3-c]pyridine-3-carboxamido)ethyl)piperidine-4-carboxylate] | 5.01 to 50.1 | kkk (200>ratio≥100)
≤ 5.01 | 5.01 to 50.1 | ≤ 5.01 | 5.01 to 50.1 | COc1cc2c(cc1-n1nc(C(=O)NCCN3CCC(C(=O)OC4CCN(C)C4)CC3)c3cnc(-c4cnn5cccnc45)cc31)OCCN2 (centres unmarked) [Example 22, 1-methylpyrrolidin-3-yl 1-(2-(1-(6-methoxy-3,4-dihydro-2H-benzo[b][1,4]oxazin-7-yl)-6-(pyrazolo[1,5-a]pyrimidin-3-yl)-1H-pyrazolo[4,3-c]pyridine-3-carboxamido)ethyl)piperidine-4-carboxylate] | 5.01 to 50.1 | kkk (200>ratio≥100)
≤ 5.01 | ≤ 5.01 | ≤ 5.01 | 5.01 to 50.1 | COc1cc2c(cc1-n1nc(C(=O)NCCN3CC[C@H](C(=O)O[C@@H]4CCN(C)C4)C3)c3cnc(-c4cnn5cccnc45)cc31)OCCN2 [Example 56, (R)-1-methylpyrrolidin-3-yl (S)-1-(2-(1-(6-methoxy-3,4-dihydro-2H-benzo[b][1,4]oxazin-7-yl)-6-(pyrazolo[1,5-a]pyrimidin-3-yl)-1H-pyrazolo[4,3-c]pyridine-3-carboxamido)ethyl)pyrrolidine-3-carboxylate] | 5.01 to 50.1 | kk (100>ratio≥10)
≤ 5.01 | ≤ 5.01 | ≤ 5.01 | 5.01 to 50.1 | COc1cc2c(cc1-n1nc(C(=O)NCCN3CCC(C(=O)OCC4(C#N)CC4)CC3)c3cnc(-c4cnn5cccnc45)cc31)OCCN2 [Example 53, (1-cyanocyclopropyl)methyl 1-(2-(1-(6-methoxy-3,4-dihydro-2H-benzo[b][1,4]oxazin-7-yl)-6-(pyrazolo[1,5-a]pyrimidin-3-yl)-1H-pyrazolo[4,3-c]pyridine-3-carboxamido)ethyl)piperidine-4-carboxylate] | ≤ 5.01 | kkkk (ratio≥200)
≤ 5.01 | ≤ 5.01 | ≤ 5.01 | 5.01 to 50.1 | COc1cc2c(cc1-n1nc(C(=O)NCCN3CCC(C(=O)OCC4CCOCC4)CC3)c3cnc(-c4cnn5cccnc45)cc31)OCCN2 [Example 18, (tetrahydro-2H-pyran-4-yl)methyl 1-(2-(1-(6-methoxy-3,4-dihydro-2H-benzo[b][1,4]oxazin-7-yl)-6-(pyrazolo[1,5-a]pyrimidin-3-yl)-1H-pyrazolo[4,3-c]pyridine-3-carboxamido)ethyl)piperidine-4-carboxylate] | ≤ 5.01 | kkkk (ratio≥200)
≤ 5.01 | ≤ 5.01 | ≤ 5.01 | 5.01 to 50.1 | CCOC(=O)COC(=O)Nc1nn(-c2cc3c(cc2OC)NCCS3)c2cc(-c3cnn4cccnc34)ncc12 [Example 3, ethyl 2-(((1-(6-methoxy-3,4-dihydro-2H-benzo[b][1,4]thiazin-7-yl)-6-(pyrazolo[1,5-a]pyrimidin-3-yl)-1H-pyrazolo[4,3-c]pyridin-3-yl)carbamoyl)oxy)acetate] | ≤ 5.01 | kkkk (ratio≥200)
≤ 5.01 | ≤ 5.01 | ≤ 5.01 | 5.01 to 50.1 | COc1cc2c(cc1-n1nc(C(=O)NCCN3CCC(C(=O)OCC(C)(C)C#N)CC3)c3cnc(-c4cnn5cccnc45)cc31)OCCN2 [Example 25, 2-cyano-2-methylpropyl 1-(2-(1-(6-methoxy-3,4-dihydro-2H-benzo[b][1,4]oxazin-7-yl)-6-(pyrazolo[1,5-a]pyrimidin-3-yl)-1H-pyrazolo[4,3-c]pyridine-3-carboxamido)ethyl)piperidine-4-carboxylate] | ≤ 5.01 | kkkk (ratio≥200)
≤ 5.01 | ≤ 5.01 | ≤ 5.01 | 5.01 to 50.1 | COc1cc2c(cc1-n1nc(C(=O)NCCN3CCC(C(=O)OC4CN(C)C4)CC3)c3cnc(-c4cnn5cccnc45)cc31)OCCN2 [Example 21, 1-methylazetidin-3-yl 1-(2-(1-(6-methoxy-3,4-dihydro-2H-benzo[b][1,4]oxazin-7-yl)-6-(pyrazolo[1,5-a]pyrimidin-3-yl)-1H-pyrazolo[4,3-c]pyridine-3-carboxamido)ethyl)piperidine-4-carboxylate] | ≤ 5.01 | kkkk (ratio≥200)
≤ 5.01 | ≤ 5.01 | ≤ 5.01 | 5.01 to 50.1 | CCOC(=O)[C@H]1C[C@@H](OC(=O)Nc2nn(-c3cc4c(cc3OC)NCCO4)c3cc(-c4cnn5cccnc45)ncc23)C1 [Example 40, ethyl (1s,3s)-3-(((1-(6-methoxy-3,4-dihydro-2H-benzo[b][1,4]oxazin-7-yl)-6-(pyrazolo[1,5-a]pyrimidin-3-yl)-1H-pyrazolo[4,3-c]pyridin-3-yl)carbamoyl)oxy)cyclobutane-1-carboxylate] | 5.01 to 50.1 | kk (100>ratio≥10)
≤ 5.01 | ≤ 5.01 | ≤ 5.01 | ≤ 5.01 | CCOC(=O)C1CCN(CCNC(=O)c2nn(-c3cc4c(cc3OC)NCCS4)c3cc(-c4cnn5cccnc45)ncc23)CC1 [Example 1, ethyl 1-(2-(1-(6-methoxy-3,4-dihydro-2H-benzo[b][1,4]thiazin-7-yl)-6-(pyrazolo[1,5-a]pyrimidin-3-yl)-1H-pyrazolo[4,3-c]pyridine-3-carboxamido)ethyl)piperidine-4-carboxylate] | ≤ 5.01 | kk (100>ratio≥10)
